We go through nine molecules from US12371454B2, “Cyclic peptide compound having Kras inhibitory action” (priority 2019, dated 2025).

pIC50: −log10 of the molar value. Starred links: 1 amine or outer side, 2 acyl side, 3 side chain; linkers in the order of their positions; H or OH if unused. Positions of bridges follow the written chain, without caps; N, C: chain ends. Non-standard residues stand in square brackets, D forms with d. Residues, ends and D or L forms follow the SMILES beside them. *: point of attachment. hPhe(3-Cl-4-CF3) = N[C@@H](CCc1ccc(C(F)(F)F)c(Cl)c1)C(=O)O; NMeDab(N,N-(CH2CF2CH2)) = CN[C@@H](CCN1CC(F)(F)C1)C(=O)O; NMePhe(4-CF3) = CN[C@@H](Cc1ccc(C(F)(F)F)cc1)C(=O)O; hPhe(4-CF3) = N[C@@H](CCc1ccc(C(F)(F)F)cc1)C(=O)O; NMeAbu(4,4,4-F3) = CN[C@@H](CC(F)(F)F)C(=O)O; NMePhe(4-Cl) = CN[C@@H](Cc1ccc(Cl)cc1)C(=O)O; NMePhe(4-Me) = CN[C@@H](Cc1ccc(C)cc1)C(=O)O; NMedβ3hAla = C[C@H](CC(=O)[*:2])N(C)[*:1]; NMeGly(cPent) = CN[C@H](C(=O)O)C1CCCC1; Phe(3-I) = N[C@@H](Cc1cccc(I)c1)C(=O)O; NMe3Pal = CN[C@@H](Cc1cccnc1)C(=O)O; NMeCha = CN[C@@H](CC1CCCCC1)C(=O)O; Hyp = O=C(O)[C@@H]1C[C@@H](O)CN1; NMeChg = CN[C@H](C(=O)O)C1CCCCC1; NMeI = CC[C@H](C)[C@H](NC)C(=O)O; hPhe = N[C@@H](CCc1ccccc1)C(=O)O; NMeE = CN[C@@H](CCC(=O)O)C(=O)O; NMeD = CN[C@@H](CC(=O)O)C(=O)O; CH2CONHtBu = CC(C)(C)NC(=O)C*; NMeL = CN[C@@H](CC(C)C)C(=O)O; d(β3hA) = C[C@@H](N)CC(=O)O; NMeAbu = CC[C@H](NC)C(=O)O; NMeS = CN[C@@H](CO)C(=O)O; Morpholide = C1CN(*)CCO1; NMeA = CN[C@@H](C)C(=O)O; NMeAib = CNC(C)(C)C(=O)O; Piperidide = C1CCN(*)CC1; Pyrrolidide = C1CCN(*)C1; dNMeA = CN[C@H](C)C(=O)O; Ac5c = NC1(C(=O)O)CCCC1; Aze = O=C(O)[C@@H]1CCN1; Aib = CC(C)(N)C(=O)O; Isopentyl = CC(C)CC*; Sar = CNCC(=O)O; Propyl = CCC*

The target in the test is T1, Kras and SOS1 (biotin-tagged human Kras loaded with GDP, His-tagged human SOS1) (Homo sapiens, UniProt P01116, G12D).
T1 construct: made in house; host or cells: E. coli (stated for Kras only)
T1 sequence (P01116 1-188 isoform P01116-2 G12D): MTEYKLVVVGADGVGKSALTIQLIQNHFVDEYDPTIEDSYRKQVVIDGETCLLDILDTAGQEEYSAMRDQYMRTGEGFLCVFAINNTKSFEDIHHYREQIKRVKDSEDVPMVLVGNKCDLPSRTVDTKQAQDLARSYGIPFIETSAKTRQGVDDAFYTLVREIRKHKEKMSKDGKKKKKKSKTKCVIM
The test can be described thus: Protein-protein interaction inhibition between Kras and SOS1 (KrasGl2D-SOS PPI) using AlphaScreen. The test is classed as binding. The note with it: AlphaScreen; biotin-tagged human Kras loaded with GDP, His-tagged human SOS1; read-out: KRAS G12D-SOS PPI IC50. The method in brief:
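Kras was produced in E. coli, purified, then loaded with GDP. It was paired via streptavidin acceptor beads with His-SOS1 held on nickel donor beads, and proximity signal at 520-620 nm was read after 680 nm illumination.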
Turning to `CC[C@H](C)[C@@H]1NC(=O)[C@H](CC(C)C)N(C)C(=O)C[C@@H](C(=O)N2CCOCC2)N(C)C(=O)[C@H](C2CCCC2)N(C)C(=O)C2(CCCC2)NC(=O)[C@H](CCC(=O)NC)N(C)C(=O)[C@H](CCc2ccc(C(F)(F)F)c(Cl)c2)NC(=O)CN(C)C(=O)[C@H](CC2CCCCC2)N(C)C(=O)[C@@H]2CCN2C(=O)[C@H](C)N(C)C1=O` [Compound 2111] ([NMeL]I[NMeA][Aze][NMeCha][Sar][hPhe(3-Cl-4-CF3)][NMeE](NHMe)[Ac5c][NMeGly(cPent)][NMeD]-Morpholide; lactam N-11), the pIC50 is 8.09. The same measure for `CC[C@H](C)[C@@H]1NC(=O)[C@H](CC(C)C)N(C)C(=O)C[C@@H](C(=O)N(C)C)N(C)C(=O)[C@H]([C@@H](C)CC)N(C)C(=O)[C@H](C)NC(=O)[C@H](Cc2cccnc2)N(C)C(=O)[C@H](CCc2ccc(C(F)(F)F)c(Cl)c2)NC(=O)CN(C)C(=O)[C@H](Cc2ccc(C)cc2)N(C)C(=O)[C@@H]2CCN2C(=O)[C@H](C)N(C)C1=O` [Compound 557] ([NMeL]I[NMeA][Aze][NMePhe(4-Me)][Sar][hPhe(3-Cl-4-CF3)][NMe3Pal]A[NMeI][NMeD]-NMe2; lactam N-11): 8.36; for `CC[C@H](C)[C@@H]1NC(=O)[C@H](CC(C)C)N(C)C(=O)C[C@@H](C(=O)N2CCCCC2)N(C)C(=O)[C@H](CC(C)C)N(C)C(=O)C(C)(C)NC(=O)[C@H](COCC(=O)NC(C)(C)C)N(C)C(=O)[C@H](CCc2ccc(C(F)(F)F)cc2)NC(=O)CN(C)C(=O)[C@H](COCCC(C)C)N(C)C(=O)CN(C)C(=O)CN(C)C1=O` [Compound 1502] ([NMeL]I[Sar][Sar][NMeS](Isopentyl)[Sar][hPhe(4-CF3)][NMeS](CH2CONHtBu)[Aib][NMeL][NMeD]-Piperidide; lactam N-11): 7.62; for `CCCOC[C@@H]1NC(=O)[C@H](CCN2CC(F)(F)C2)N(C)C(=O)[C@H](CCc2ccc(C(F)(F)F)c(Cl)c2)NC(=O)CN(C)C(=O)[C@H](CC2CCCCC2)N(C)C(=O)[C@@H]2CCN2C(=O)[C@H](C)N(C)C(=O)[C@H]([C@@H](C)CC)NC(=O)[C@H](CC(C)C)N(C)C(=O)C[C@@H](C(=O)N(C)C)N(C)C(=O)[C@H](C2CCCC2)N(C)C1=O` [Compound 817] ([NMeL]I[NMeA][Aze][NMeCha][Sar][hPhe(3-Cl-4-CF3)][NMeDab(N,N-(CH2CF2CH2))]S(Propyl)[NMeGly(cPent)][NMeD]-NMe2; lactam N-11): 7.82.

As for `CC[C@H](C)[C@@H]1NC(=O)[C@H](CC(C)C)N(C)C(=O)C[C@@H](C(=O)N2CCCCC2)N(C)C(=O)[C@H](CC(C)C)NC(=O)C(C)(C)N(C)C(=O)[C@H](CCc2ccccc2)NC(=O)[C@H](Cc2cccc(I)c2)NC(=O)CN(C)C(=O)[C@H](CC2CCCCC2)N(C)C(=O)[C@@H]2CCN2C(=O)CN(C)C1=O` [Compound 931] ([NMeL]I[Sar][Aze][NMeCha][Sar][Phe(3-I)][hPhe][NMeAib]L[NMeD]-Piperidide; lactam N-11), the pIC50 is 6.57. `CC[C@H](C)[C@@H]1NC(=O)[C@H](C)N(C)C(=O)C[C@@H](C)NC(=O)[C@H](C2CCCC2)N(C)C(=O)C2(CCCC2)NC(=O)[C@@H]2CCCN2C(=O)[C@H](CCc2ccc(C(F)(F)F)c(Cl)c2)NC(=O)[C@@H](C)N(C)C(=O)[C@H](Cc2ccc(C(F)(F)F)cc2)N(C)C(=O)CN(C)C(=O)CN(C)C1=O` [Compound 1520] (cyclo([Ac5c][NMeGly(cPent)][d(β3hA)][NMeA]I[Sar][Sar][NMePhe(4-CF3)][dNMeA][hPhe(3-Cl-4-CF3)]P)): the pIC50 was 7.23. In the case of `CCO[C@@H]1C[C@H]2C(=O)NC3(CCCC3)C(=O)N(C)[C@@H](C3CCCCC3)C(=O)N(C)[C@H](C(=O)N3CCCC3)CC(=O)N(C)[C@@H](CC(F)(F)F)C(=O)N[C@@H]([C@@H](C)CC)C(=O)N(C)CC(=O)N(C)CC(=O)N(C)[C@@H](Cc3ccc(C(F)(F)F)cc3)C(=O)N(C)CC(=O)N[C@@H](CCc3ccc(C(F)(F)F)c(Cl)c3)C(=O)N2C1` [Compound 1139] ([NMeAbu(4,4,4-F3)]I[Sar][Sar][NMePhe(4-CF3)][Sar][hPhe(3-Cl-4-CF3)][Hyp](Et)[Ac5c][NMeChg][NMeD]-Pyrrolidide; lactam N-11), the pIC50 is 9.23. Regarding `CC[C@H](C)[C@@H]1NC(=O)[C@H](C)N(C)C(=O)C[C@@H](C(=O)N2CCCC2)NC(=O)[C@H](CC(C)C)N(C)C(=O)[C@H](Cc2ccccc2)NC(=O)[C@H](CC(C)C)NC(=O)[C@H](CCc2ccc(C(F)(F)F)cc2)NC(=O)CN(C)C(=O)[C@H](Cc2ccc(Cl)cc2)N(C)C(=O)CN(C)C(=O)CN(C)C1=O` [Compound 1085] ([NMeA]I[Sar][Sar][NMePhe(4-Cl)][Sar][hPhe(4-CF3)]LF[NMeL]D-Pyrrolidide; lactam N-11), the pIC50 is 7.30. As to `CC[C@H](C)[C@@H]1NC(=O)[C@H](C)N(C)C(=O)C[C@@H](C)N(C)C(=O)[C@H](CC)N(C)C(=O)C(C)(C)N(C)C(=O)[C@@H]2CCCN2C(=O)[C@H](CCc2ccc(C(F)(F)F)c(Cl)c2)NC(=O)CN(C)C(=O)[C@H](CC2CCCCC2)N(C)C(=O)[C@@H]2CCN2C(=O)[C@H](C)N(C)C1=O` [Compound 2154] (cyclo([Aze][NMeCha][Sar][hPhe(3-Cl-4-CF3)]P[NMeAib][NMeAbu][NMedβ3hAla][NMeA]I[NMeA])), the pIC50 was 7.48.
